Experimental data reported in publication PMC10661964 (Current Drug Metabolism, 2023).
Read-outs that look alike come from different tables or passages of the source.

What was measured:
Assay type in all cases: in vitro ADME
[1] = Unbound fraction (fu) in human plasma
[2] = biological target: T1, CYP 1A2 (Homo sapiens, UniProt P05177); experiment: CYP inhibition with probe substrate; conditions: probe substrate phenacetin
T1 sequence (P05177 1-516): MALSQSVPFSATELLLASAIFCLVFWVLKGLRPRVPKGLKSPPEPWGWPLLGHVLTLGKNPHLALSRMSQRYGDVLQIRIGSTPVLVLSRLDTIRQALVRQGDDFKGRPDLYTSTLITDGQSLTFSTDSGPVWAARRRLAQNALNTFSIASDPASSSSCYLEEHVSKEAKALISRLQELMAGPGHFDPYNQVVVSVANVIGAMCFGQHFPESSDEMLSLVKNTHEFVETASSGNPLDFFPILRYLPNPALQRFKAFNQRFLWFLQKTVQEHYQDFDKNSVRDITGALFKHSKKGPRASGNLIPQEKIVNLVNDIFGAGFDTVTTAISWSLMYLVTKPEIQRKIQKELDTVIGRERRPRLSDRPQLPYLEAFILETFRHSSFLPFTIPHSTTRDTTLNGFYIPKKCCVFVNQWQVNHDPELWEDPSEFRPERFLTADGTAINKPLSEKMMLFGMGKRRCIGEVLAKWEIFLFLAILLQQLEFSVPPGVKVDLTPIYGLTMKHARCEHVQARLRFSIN
From the text: (§1) The inhibition of cytochrome P450 (CYP) isoforms and a range of cellular transporters (except multidrug and toxin extrusion [MATE] proteins), as well as the induction of CYP isoforms were investigated using previously described methods.

[3] = biological target: T2, CYP 2C8 (Homo sapiens, UniProt P10632); experiment: CYP inhibition with probe substrate; conditions: probe substrate amodiaquine
T2 sequence (P10632 1-490): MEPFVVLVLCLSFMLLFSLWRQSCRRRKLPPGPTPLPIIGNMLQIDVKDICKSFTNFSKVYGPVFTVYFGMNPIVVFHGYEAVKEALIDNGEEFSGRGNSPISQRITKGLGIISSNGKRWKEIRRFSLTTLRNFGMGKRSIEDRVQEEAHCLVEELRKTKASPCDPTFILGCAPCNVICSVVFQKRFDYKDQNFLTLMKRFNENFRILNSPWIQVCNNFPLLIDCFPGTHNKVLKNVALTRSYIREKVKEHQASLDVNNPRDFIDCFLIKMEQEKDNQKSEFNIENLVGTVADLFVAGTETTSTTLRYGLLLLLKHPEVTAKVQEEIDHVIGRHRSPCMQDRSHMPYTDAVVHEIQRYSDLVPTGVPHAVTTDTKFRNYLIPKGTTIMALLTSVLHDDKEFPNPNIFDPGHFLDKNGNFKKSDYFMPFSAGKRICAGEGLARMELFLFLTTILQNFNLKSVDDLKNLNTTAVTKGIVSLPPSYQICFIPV
From the text: as §1

[4] = biological target: CYP 3A4 (Homo sapiens, UniProt P08684); experiment: CYP inhibition with probe substrates
Chain of CYP 3A4 (P08684 whole entry): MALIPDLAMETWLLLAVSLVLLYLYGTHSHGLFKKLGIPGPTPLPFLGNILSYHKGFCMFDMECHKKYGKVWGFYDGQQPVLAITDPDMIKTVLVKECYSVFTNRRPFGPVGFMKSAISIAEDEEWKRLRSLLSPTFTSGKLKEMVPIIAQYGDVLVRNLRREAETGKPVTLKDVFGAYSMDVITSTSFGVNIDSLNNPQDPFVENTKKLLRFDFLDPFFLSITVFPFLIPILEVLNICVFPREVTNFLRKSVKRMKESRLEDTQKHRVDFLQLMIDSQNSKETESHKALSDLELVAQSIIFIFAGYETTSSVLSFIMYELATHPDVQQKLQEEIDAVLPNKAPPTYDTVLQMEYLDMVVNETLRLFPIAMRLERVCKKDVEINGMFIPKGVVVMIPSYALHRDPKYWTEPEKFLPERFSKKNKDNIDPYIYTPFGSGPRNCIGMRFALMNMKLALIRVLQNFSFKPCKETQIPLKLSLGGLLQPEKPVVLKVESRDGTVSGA
From the text: as §1

[5] = biological target: T3, MATE1 (Homo sapiens, UniProt Q96FL8); experiment: MATE1 transport assay in overexpressing HEK293 cells; conditions: probe substrate metformin 20 µM
T3 construct: expressed in transfected cells; host or cells: HEK293, stably transfected
T3 sequence (Q96FL8 1-570): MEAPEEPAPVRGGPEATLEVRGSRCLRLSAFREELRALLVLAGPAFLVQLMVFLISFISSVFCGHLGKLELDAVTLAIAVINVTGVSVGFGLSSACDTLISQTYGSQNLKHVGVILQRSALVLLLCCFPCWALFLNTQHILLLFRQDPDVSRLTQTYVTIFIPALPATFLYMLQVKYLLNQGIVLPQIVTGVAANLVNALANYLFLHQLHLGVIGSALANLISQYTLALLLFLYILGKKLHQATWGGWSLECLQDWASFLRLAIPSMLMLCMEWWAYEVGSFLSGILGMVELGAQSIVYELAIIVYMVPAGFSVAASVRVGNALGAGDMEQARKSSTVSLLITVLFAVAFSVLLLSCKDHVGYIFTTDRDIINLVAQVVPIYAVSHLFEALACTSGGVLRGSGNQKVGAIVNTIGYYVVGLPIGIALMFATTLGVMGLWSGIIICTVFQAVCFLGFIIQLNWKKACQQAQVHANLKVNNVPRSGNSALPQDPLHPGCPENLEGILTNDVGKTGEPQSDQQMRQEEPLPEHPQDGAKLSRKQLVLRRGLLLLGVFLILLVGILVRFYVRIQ
Procedure: as §1
Supplementary Material Current Drug Metabolism, 2023, Vol. 24, No. 8 iii […]
-, not determined; BCRP, breast cancer resistance protein; P-gp, P-glycoprotein; MATE, multidrug and toxin extrusion. aThe highest test concentration of 20 µM was not valid in this assay for technical reasons.
OAT, organic anion transporter; OATP, organic anion transporting polypeptide; OCT, organic cation transporters.
After thawing from frozen storage, aliquots of approximately 3 x 10^6 cells of human embryonic kidney (HEK293) cell line stable overex-pressing MATE1 or MATE2K were transferred to cell culture dishes containing 10 mL of DMEM-medium (supplemented with 10% FBS, 1% penicillin [10.000 U/mL]/streptomycin [10 mg/mL] and hygromycin B [150 µg/mL]) at 37°C. Transporter-transfected and vector-transfected HEK cells were grown on cell culture dishes at 37°C in a humidified 5% CO 2 atmosphere. All cell lines were confirmed free from mycoplasma by routine testing with conventional PCR. Cell cultures were split when they had grown to confluency. For passaging, cells were washed with PBS, exposed to trypsin-EDTA for 5 min at room temperature, collected by centrifugation, resuspended in culture medium and […]
MATE1 and MATE2K Transport Assays
Transporter-transfected and vector-transfected cells were prepared for use in uptake assays by harvesting and plating into 24-well-plates pre-coated with poly-D-lysine hydrobromide at a density of 2 x 10^5 cells/well and then cultured for 3 days in DMEM growth medium (high glucose, 10% FBS, 1% penicillin/streptomycin). For uptake assays, the growth medium was aspirated and each plate well was rinsed twice with HBSS supplemented with 20 mM HEPES, pH 7.4. The intracellular environment was acidified by preincubation in 30 mM NH4Cl in buffer pH 7.4 at 37°C for 30 min. […]

[6] = 30-min preincubation, read-out: Pre- IC50 (+ NADPH)
[7] = coincubation, read-out: Co- IC50
[8] = 3A4 (M), 30-min preincubation, probe substrate midazolam, read-out: Pre- IC50 (+ NADPH)
[9] = 3A4 (M), coincubation, probe substrate midazolam, read-out: Co- IC50
[10] = 3A4 (M), probe substrate midazolam
[11] = 3A4 (T), 30-min preincubation, probe substrate testosterone, read-out: Pre- IC50 (+ NADPH)
[12] = 3A4 (T), coincubation, probe substrate testosterone, read-out: Co- IC50
[13] = 3A4 (T), probe substrate testosterone

SMILES | fraction unbound [1] | IC50 [2, 6] | IC50 [2, 7] | TDI (time-dependent inhibition) [2] | IC50 [3, 6] | IC50 [3, 7] | TDI (time-dependent inhibition) [3] | IC50 [4, 8] | IC50 [4, 9] | TDI (time-dependent inhibition) [4, 10] | IC50 [4, 11] | IC50 [4, 12] | TDI (time-dependent inhibition) [4, 13] | IC50 [5]
CC1CS(=O)(=O)CCN1n1cc(SCC(N)C(=O)O)ccc1=O (stereo not drawn) [M-4] | 1 | > 20 µM | > 20 µM | No | > 20 µM | > 20 µM | No | > 2e-05 M | > 2e-05 M | No | > 2e-05 M | > 2e-05 M | No | > 5 µM
CC1CS(=O)(=O)CCN1N (stereo not drawn) [M-6] | 1 | > 100 µM | > 100 µM | No | > 100 µM | > 100 µM | No | > 0.0001 M | > 0.0001 M | No | > 0.0001 M | > 0.0001 M | No | > 30 µM
CC1CS(=O)(=O)CCN1/N=C/c1ccc([N+](=O)[O-])o1 (stereo not drawn) [Nifurtimox, (E)-N-(3-methyl-1,1-dioxo-1,4-thiazinan-4-yl)-1-(5-nitrofuran-2-yl) methanimine, reference compound] | 0.576 | > 50 µM | > 50 µM | No | > 50 µM | > 50 µM | No | 4.8e-05 to 4.9e-05 M | > 5e-05 M | No | > 5e-05 M | > 5e-05 M | No | > 20 µM
